Columns and labels:
[1] = tested on: LDL receptor knockout (LDLRKO) mice; assay: Plasma total cholesterol, cholesterol esters and triglycerides in LDLRKO mice on western diet, 28 days (Example 7); format: in vivo
Description: The mice were provided free access to an atherogenic western diet (WD) containing 0.21% cholesterol (by weight) and 40% calories from fat and water for 4 weeks prior to treatment. […] The treatments were administered for 28 days continuously.
Blood samples of the mice in all groups were obtained from tails of the mice at day 28 after the administration. The serum/plasma levels of triglyceride, total cholesterol and cholesterol esters were measured.

C. elegans = assay: Lifespan of C. elegans (Example 8); format: in vivo, Caenorhabditis elegans; settings: leucine (0.5 mM) or nicotinic acid (10 nM), each alone
Description: Eggs were hatched on a starved plate overnight. […] To study lifespan, 50 young adult worms were placed on NGM agar plates seeded with E. coli strain OP-50 (=day 1 of study). All treatments were added with the indicated concentrations to the agar plates. […] The worms were maintained at 21° C. throughout the duration of the study. Worms were transferred to new plates daily to eliminate progeny. […] The study was continued until the last animal was dead. Data were analyzed via Kaplan-Meier survival curves using Prism 6 (GraphPad Software) and statistical significance was determined by the Log-rank (Mantel-Cox) test.

[2] = oral dosing of about 3,000 mg; cited from earlier work
Sirt1 = Sirt1 level by Western blotting in C2C12 myotubes (Example 1)
[3] = tested on: LDL receptor knockout (LDLRKO) mice; assay: Lipid levels, atherosclerotic plaque and cutaneous vasodilation in LDLRKO mice on atherogenic diet, 60 days (Example 4); format: in vivo; settings: for HDL level in the blood stream compared to negative control group (atherogenic diet only) / triglyceride, LDL and cholesterol levels in the blood stream compared to negative control group (atherogenic diet only): 60 days
Description: All chemicals are purchased from Sigma.
Cutaneous vasodilation is measured by laser-Doppler flowmeter.

AMPK = settings: 3T3-L1 adipocytes; concentrations of nicotinic acid <100 nM alone
Description: 3T3-L1 preadipocytes (American Type Culture Collection) were plated at a density of 8000 cells/cm2 (10 cm2 dish) and grown in Dulbecco's modified eagle's medium (DMEM) containing 10% fetal bovine serum (FBS), and antibiotics (growth medium) at 37° C. in 5% CO2. […] Preadipocytes were maintained in this differentiation medium for 3 days and subsequently cultured in growth medium. Cultures were re-fed every 2-3 days to allow >90% cells to reach fully differentiation before conducting chemical treatment.
Western blotting was performed with antibodies against AMPK and Phospho-AMPKα (Thr172) obtained from Cell Signaling (Danvers, Mass.). […] Total 30 μg of protein from the cell lysate was resolved on 10% Tris/HCL polyacrylamide gels (Criterion precast gel, Bio-Rad Laboratories, Hercules, Calif.), transferred to PVDF membranes, incubated in blocking buffer (3% BSA in TBS), incubated with primary antibody (P-AMPK), washed and incubated with secondary horseradish peroxidase-conjugated antibody.

[4] = tested on: Patients that are pre-diagnosed with hyperlipidemia; assay: Lipid levels and cutaneous vasodilation in hyperlipidemia patients, 60 days (Example 5); format: in vivo, human; settings: for HDL level compared to day 0 values / triglyceride, LDL and cholesterol levels compared to day 0 values: orally twice a day, 60 days
Description: Patients that are pre-diagnosed with hyperlipidemia are admitted for the randomized and double blind study. […] The treatments are administered orally twice a day, for 60 days continuously.
Blood samples of the patients in all groups are obtained from at day 0, 30 and 60 after the administration. The serum/plasma levels of triglyceride, cholesterol, LDL and HDL are measured. Cutaneous vasodilation is measured by laser-Doppler flowmeter and the discomfort level described by the patients.

[5] = tested on: Patients that experience acute chest pain and are pre-diagnosed with hyperlipidemia; assay: Atherosclerotic plaque size by quantitative coronary angiography in patients, 3 years (Example 6); format: in vivo, human; settings: orally twice a day, (a) 50 mg nicotinic acid alone, (b) 50 mg nicotinic acid + 1135 mg leucine, (c) 50 mg nicotinic acid + 1135 mg leucine + 50 mg resveratrol, (d) 1135 mg leucine + 50 mg resveratrol
Description: The treatments are administered orally twice a day, for 3 years continuously. The size of atherosclerotic plaque is measured at day 0, months 6, 12, 18, 24, 30 and 36 by quantitative coronary angiography.

[6] = group (e) 10 g nicotinic acid/kg diet alone
[7] = group (e) 3000 mg nicotinic acid alone

Q: With `CC(C)C[C@H](N)C(=O)O` [leucine] as the molecule, how does the “effect on cholesterol esters” value ([1]; leucine 24 g/kg diet alone) read?
A: no independent effect

Q: And the “effect on total cholesterol” value ([1]; leucine 24 g/kg diet alone)?
A: no independent effect

Q: What about the effect on lifespan (C. elegans) of the same molecule?
A: no independent effect

Q: For `NC(=O)c1ccc[n+]([C@@H]2O[C@H](CO)[C@@H](O)[C@H]2O)c1` [nicotinamide riboside], which “circulating level of nicotinic acid or nicotinamide riboside in a subject” value [2] is on record?
A: about 10 μM

Q: Which Sirt1 levels (Sirt1; 24 hours, nicotinic acid 10 nM, leucine 0.5 mM, nicotinic acid alone) does the source give for `O=C(O)c1cccnc1` [nicotinic acid] here?
A: did not have a significant effect

Q: What about the “effect of nicotinic acid alone on the variable studied (Sirt1), dose-response study” value (Sirt1; concentrations of nicotinic acid <100 nM alone) of the same molecule?
A: no effect

Q: And the “cutaneous vasodilation compared to all the other groups including control groups” value ([3]; 10 g of nicotinic acid/kg diet alone, laser-Doppler flowmeter)?
A: significant higher

Q: What about the “HDL level in the blood stream compared to negative control group (atherogenic diet only)” value [3, 6] of the same molecule?
A: significantly higher

Q: And the “triglyceride, LDL and cholesterol levels in the blood stream compared to negative control group (atherogenic diet only)” value [3, 6]?
A: significantly lower

Q: What about the “HDL level in the blood stream compared to negative control group (atherogenic diet only)” value ([3]; per kg diet: (a) 250 mg nicotinic acid alone, (b) 250 mg nicotinic acid + 24 g leucine, (c) 50 mg nicotinic acid + 24 g leucine + 12.5 mg resveratrol) of the same molecule?
A: similar, without statistically significant difference

Q: And the “triglyceride, LDL and cholesterol levels in the blood stream compared to negative control group (atherogenic diet only)” value ([3]; per kg diet: (a) 250 mg nicotinic acid alone, (b) 250 mg nicotinic acid + 24 g leucine, (c) 50 mg nicotinic acid + 24 g leucine + 12.5 mg resveratrol, (d) 24 g leucine + 12.5 mg resveratrol)?
A: similar, without statistically significant difference

Q: And the “atherosclerotic lesion size in the aorta” value ([3]; day 60, group (e) 10 g nicotinic acid/kg diet alone)?
A: significantly reduced

Q: And the “atherosclerotic lesion size in the aorta” value ([3]; day 60, per kg diet: (a) 250 mg nicotinic acid alone, (b) 250 mg nicotinic acid + 24 g leucine, (c) 50 mg nicotinic acid + 24 g leucine + 12.5 mg resveratrol, (d) 24 g leucine + 12.5 mg resveratrol)?
A: No significant reduction

Q: What about the “decrease in cholesterol esters” value ([1]; nicotinic acid 1,000 mg/kg diet, p<0.002) of the same molecule?
A: 28%

Q: What about the “decrease in total cholesterol” value ([1]; nicotinic acid 1,000 mg/kg diet, p<0.01) of the same molecule?
A: 20%

Q: And the “effect of nicotinic acid alone on the variable studied (P-AMPK/AMPK), dose-response study” value (AMPK)?
A: no effect

Q: What about the “circulating level of nicotinic acid or nicotinamide riboside in a subject” value [2] of the same molecule?
A: about 10 μM

Q: And the “cutaneous vasodilation compared to all the other groups including placebo” value ([4]; 3000 mg of nicotinic acid alone, laser-Doppler flowmeter and discomfort level)?
A: significant higher

Q: And the “HDL level compared to day 0 values” ([4]; (a) 50 mg nicotinic acid alone, (b) 50 mg nicotinic acid + 1135 mg leucine, (c) 50 mg nicotinic acid + 1135 mg leucine + 50 mg resveratrol)?
A: similar, without statistically significant difference

Q: What about the “triglyceride, LDL and cholesterol levels compared to day 0 values” ([4]; (a) 50 mg nicotinic acid alone, (b) 50 mg nicotinic acid + 1135 mg leucine, (c) 50 mg nicotinic acid + 1135 mg leucine + 50 mg resveratrol, (d) 1135 mg leucine + 50 mg resveratrol) of the same molecule?
A: similar, without statistically significant difference

Q: And the “HDL level compared to day 0 values” [4, 7]?
A: significantly higher

Q: And the “triglyceride, LDL and cholesterol levels compared to day 0 values” [4, 7]?
A: significantly lower

Q: What about the “atherosclerotic plaque (lesion) size compared to day 0 values” [5] of the same molecule?
A: similar, without statistically significant difference

Q: And the effect on lifespan (C. elegans)?
A: no independent effect

Reference: patent US9585876B2 (NuSirt Sciences, Inc., priority 2013, dated 2017)
